In ChEMBL document CHEMBL1201862, “PubChem BioAssay data set” (2004):
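A five-concentration, 48-hour dose response in 96-well plates underlies each endpoint, interpolated linearly between surrounding concentrations. GI50: concentration for 50% inhibition of growth.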 Activity calls are given as the source filed them. Cut-off read from the data, not from the text of the source: active = GI50 up to about 1.1 µM and inactive = higher.

Legend:
Assay in all cases: NCI tumour cell line growth inhibition, 48 h
UO-31 = system: UO-31
A549 = system: A549
HOP-62 = system: HOP-62
HCT-116 = system: HCT-116
IGROV-1 = system: IGROV-1
COLO 205 = system: COLO 205
KM12 = system: KM12
SK-OV-3 = system: SK-OV-3
K562 = system: K562
NCI-H460 = system: NCI-H460
ACHN = system: ACHN
786-0 = system: 786-0
OVCAR-4 = system: OVCAR-4
EKVX = system: EKVX
SK-MEL-5 = system: SK-MEL-5
HT-29 = system: HT-29
RPMI-8226 = system: RPMI-8226

SMILES | GI50 (UO-31) | GI50 (A549) | GI50 (HOP-62) | GI50 (HCT-116) | GI50 (IGROV-1) | GI50 (COLO 205) | GI50 (KM12) | GI50 (SK-OV-3) | GI50 (K562) | GI50 (NCI-H460) | GI50 (ACHN) | GI50 (786-0) | GI50 (OVCAR-4) | GI50 (EKVX) | GI50 (SK-MEL-5) | GI50 (HT-29) | GI50 (RPMI-8226)
Cc1ccc(NC(=O)CCC(=O)C2CC(=O)CCC2=O)cc1C (stereo unspecified) | > 100 µM (inactive) | > 100 µM (inactive) | > 100 µM (inactive) | > 100 µM (inactive) | > 100 µM (inactive) | > 100 µM (inactive) | > 100 µM (inactive) | > 100 µM (inactive) | > 100 µM (inactive) | > 100 µM (inactive) | > 100 µM (inactive) | > 100 µM (inactive) | > 100 µM (inactive) | > 100 µM (inactive) | > 100 µM (inactive) | > 100 µM (inactive) | –
CN(/N=C/c1ccnc2ccccc12)c1c([N+](=O)[O-])cc([N+](=O)[O-])cc1[N+](=O)[O-] | 26.7 µM (inactive) | 94.8 µM (inactive) | 88.3 µM (inactive) | – | > 100 µM (inactive) | > 100 µM (inactive) | > 100 µM (inactive) | > 100 µM (inactive) | 30.7 µM (inactive) | > 100 µM (inactive) | 72.6 µM (inactive) | > 100 µM (inactive) | 53.7 µM (inactive) | 47.3 µM (inactive) | 34.2 µM (inactive) | > 100 µM (inactive) | 26.6 µM (inactive)
COc1ccccc1OCc1nnc(SCC(=O)O)n1-c1ccccc1 | > 100 µM (inactive) | > 100 µM (inactive) | > 100 µM (inactive) | > 100 µM (inactive) | > 100 µM (inactive) | > 100 µM (inactive) | > 100 µM (inactive) | > 100 µM (inactive) | – | > 100 µM (inactive) | > 100 µM (inactive) | > 100 µM (inactive) | > 100 µM (inactive) | > 100 µM (inactive) | > 100 µM (inactive) | > 100 µM (inactive) | > 100 µM (inactive)
CC(=O)O[C@H]1CC[C@@]2(C)C(=CC[C@@H]3C2CC[C@]2(C)Nc4oncc4CC32)C1 (stereo partly specified) | 18.3 µM (inactive) | 28.4 µM (inactive) | 49.2 µM (inactive) | 15.5 µM (inactive) | 28.1 µM (inactive) | – | 22.6 µM (inactive) | 96.6 µM (inactive) | 6.68 µM (inactive) | 20.3 µM (inactive) | 25.6 µM (inactive) | > 100 µM (inactive) | 16.8 µM (inactive) | > 100 µM (inactive) | 17.8 µM (inactive) | 30.1 µM (inactive) | 16.9 µM (inactive)
CN/N=C(/CC(=O)c1sc(NNC(C)=O)nc1C)C(=O)Nc1ccc(OC)cc1OC | > 100 µM (inactive) | > 100 µM (inactive) | > 100 µM (inactive) | > 100 µM (inactive) | > 100 µM (inactive) | > 100 µM (inactive) | > 100 µM (inactive) | – | > 100 µM (inactive) | > 100 µM (inactive) | > 100 µM (inactive) | > 100 µM (inactive) | > 100 µM (inactive) | 59.7 µM (inactive) | > 100 µM (inactive) | > 100 µM (inactive) | > 100 µM (inactive)
NC(=O)c1ccccc1NC(=O)C(=O)Cc1nc2ccccc2nc1O | > 100 µM (inactive) | > 100 µM (inactive) | > 100 µM (inactive) | > 100 µM (inactive) | > 100 µM (inactive) | > 100 µM (inactive) | 71.8 µM (inactive) | > 100 µM (inactive) | > 100 µM (inactive) | > 100 µM (inactive) | > 100 µM (inactive) | > 100 µM (inactive) | > 100 µM (inactive) | > 100 µM (inactive) | > 100 µM (inactive) | – | > 100 µM (inactive)
O=C(O)/C(=C/C=C/c1ccccc1)c1csc(-c2nc(/C(=C\C=C\c3ccccc3)C(=O)O)cs2)n1 | 18.5 µM (inactive) | 43.8 µM (inactive) | 18 µM (inactive) | 17.7 µM (inactive) | 32.7 µM (inactive) | 22.3 µM (inactive) | 27.9 µM (inactive) | 57.3 µM (inactive) | 21.9 µM (inactive) | 40.8 µM (inactive) | 28 µM (inactive) | 23.2 µM (inactive) | – | > 100 µM (inactive) | 33 µM (inactive) | 38.2 µM (inactive) | 22.7 µM (inactive)
CCCCCN(CCCCC)C(=O)[C@H](CCC(=O)OCc1ccccc1)NC(=O)c1cc2ccccc2[nH]1 | > 100 µM (inactive) | > 100 µM (inactive) | > 100 µM (inactive) | > 100 µM (inactive) | > 100 µM (inactive) | > 100 µM (inactive) | > 100 µM (inactive) | > 100 µM (inactive) | > 100 µM (inactive) | > 100 µM (inactive) | > 100 µM (inactive) | > 100 µM (inactive) | > 100 µM (inactive) | > 100 µM (inactive) | – | > 100 µM (inactive) | 0.343 µM (active)
O=C(N/N=C(/CCN1CCCC1)CC(c1ccccc1)c1c(O)c2ccccc2oc1=O)c1ccncc1 (stereo unspecified) | > 100 µM (inactive) | > 100 µM (inactive) | > 100 µM (inactive) | > 100 µM (inactive) | > 100 µM (inactive) | – | > 100 µM (inactive) | > 100 µM (inactive) | 87.1 µM (inactive) | > 100 µM (inactive) | > 100 µM (inactive) | > 100 µM (inactive) | > 100 µM (inactive) | > 100 µM (inactive) | > 100 µM (inactive) | > 100 µM (inactive) | 45.1 µM (inactive)
COC(=O)C(C(=O)C(=O)Nc1cccc([N+](=O)[O-])c1)c1nc2ccc([N+](=O)[O-])cc2nc1O (stereo unspecified) | > 100 µM (inactive) | > 100 µM (inactive) | > 100 µM (inactive) | > 100 µM (inactive) | > 100 µM (inactive) | > 100 µM (inactive) | > 100 µM (inactive) | > 100 µM (inactive) | > 100 µM (inactive) | > 100 µM (inactive) | > 100 µM (inactive) | > 100 µM (inactive) | > 100 µM (inactive) | > 100 µM (inactive) | > 100 µM (inactive) | > 100 µM (inactive) | –
C=CCCCCCCCC(O)C1C[C@H](O)C(CCCCC)O1 (stereo partly specified) | 17.8 µM (inactive) | 19.4 µM (inactive) | – | 17.6 µM (inactive) | 20.2 µM (inactive) | 18.5 µM (inactive) | 19.5 µM (inactive) | 20.4 µM (inactive) | 20.7 µM (inactive) | 18.9 µM (inactive) | 16.9 µM (inactive) | 17.9 µM (inactive) | – | 19.5 µM (inactive) | 18.3 µM (inactive) | 18.6 µM (inactive) | 17.1 µM (inactive)
COc1cc([C@@H]2OCC3C(c4ccc5c(c4)OCO5)OCC32)cc(OC)c1OC (stereo partly specified) | > 100 µM (inactive) | 71.3 µM (inactive) | > 100 µM (inactive) | 66.7 µM (inactive) | > 100 µM (inactive) | > 100 µM (inactive) | > 100 µM (inactive) | > 100 µM (inactive) | 54.1 µM (inactive) | > 100 µM (inactive) | > 100 µM (inactive) | > 100 µM (inactive) | > 100 µM (inactive) | 47.1 µM (inactive) | – | > 100 µM (inactive) | 98.9 µM (inactive)
